In ChEMBL document CHEMBL5385847, “Design, synthesis and biological evaluation of a new class of 7H-pyrrolo[2,3-d]pyrimidine derivatives as Mps1 inhibitors for the treatment of breast cancer” (Eur J Med Chem, 2023):
Activity calls are given as the source filed them. The rule behind the calls is not given here.

Assays:
4T1 [1] = assay: Induction of cell cycle arrest in 4T1 cells at G2/M phase assessed as decrease in cyclin B1 level incubated for 24 hrs by Western blot analysis; assay type: functional, cell-based; conditions: Mus musculus, dose <= 3.0 µM
ES-2 = assay: Antiproliferative activity against human ES2 cells assessed as inhibition of cell viability upto 10 uM incubated for 72 hrs by MTT assay; assay type: functional, cell-based
HCT-116 = assay: Antiproliferative activity against human HCT-116 cells assessed as inhibition of cell viability upto 10 uM incubated for 72 hrs by MTT assay; assay type: functional, cell-based
[2] = molecular target: Proto-oncogene tyrosine-protein kinase Src (Homo sapiens) (UniProt P12931); assay: Inhibition of human cSRC at 1 uM by KINOMEscan assay relative to control
Chain of Proto-oncogene tyrosine-protein kinase Src (Homo sapiens) (P12931 2-536 limits assumed): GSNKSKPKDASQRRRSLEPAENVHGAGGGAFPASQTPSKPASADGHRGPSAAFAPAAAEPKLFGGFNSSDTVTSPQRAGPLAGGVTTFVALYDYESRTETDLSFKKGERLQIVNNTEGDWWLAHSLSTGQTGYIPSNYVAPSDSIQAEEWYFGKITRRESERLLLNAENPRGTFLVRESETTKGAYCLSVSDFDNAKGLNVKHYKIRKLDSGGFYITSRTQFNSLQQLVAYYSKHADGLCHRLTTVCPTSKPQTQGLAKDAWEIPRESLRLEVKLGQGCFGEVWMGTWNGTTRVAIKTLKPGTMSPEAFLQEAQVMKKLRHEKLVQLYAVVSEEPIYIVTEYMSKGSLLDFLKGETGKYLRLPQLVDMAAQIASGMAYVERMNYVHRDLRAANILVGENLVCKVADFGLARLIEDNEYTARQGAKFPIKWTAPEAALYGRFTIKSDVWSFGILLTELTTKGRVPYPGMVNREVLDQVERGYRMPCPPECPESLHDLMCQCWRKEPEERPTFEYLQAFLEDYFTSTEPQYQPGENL

Vero = assay: Antiproliferative activity against African green monkey Vero cells assessed as inhibition of cell viability by MTT assay; assay type: toxicity, cell-based; conditions: chlorocebus sabaeus
MCF7 [3] = assay: Antiproliferative activity against human MCF7 cells assessed as inhibition of cell viability by MTT assay; assay type: functional, cell-based
4T1 [4] = assay: Induction of apoptosis in 4T1 cells assessed as early apoptotic cells at 0.5 uM incubated for 48 hrs by Annexin V-FITC/PI staining based flow cytometry (reference value: 0.32 %); assay type: functional, Mus musculus
4T1 [5] = assay: Antiproliferative activity against 4T1 cells assessed as inhibition of cell viability upto 10 uM by MTT assay; assay type: functional, cell-based; conditions: Mus musculus, time 24-72 hrs, TDE = time-dependent effect
MCF7 [6] = assay: Induction of apoptosis in human MCF7 cells assessed as early apoptotic cells at 1 uM incubated for 48 hrs by Annexin V-FITC/PI staining based flow cytometry (reference value: 1.19 %); assay type: functional
[7] = molecular target: ALK tyrosine kinase receptor (Homo sapiens) (UniProt Q9UM73); assay: Inhibition of human ALK at 0.1 uM by KINOMEscan assay relative to control
Chain of ALK tyrosine kinase receptor (Homo sapiens) (Q9UM73 19-1620 limits assumed): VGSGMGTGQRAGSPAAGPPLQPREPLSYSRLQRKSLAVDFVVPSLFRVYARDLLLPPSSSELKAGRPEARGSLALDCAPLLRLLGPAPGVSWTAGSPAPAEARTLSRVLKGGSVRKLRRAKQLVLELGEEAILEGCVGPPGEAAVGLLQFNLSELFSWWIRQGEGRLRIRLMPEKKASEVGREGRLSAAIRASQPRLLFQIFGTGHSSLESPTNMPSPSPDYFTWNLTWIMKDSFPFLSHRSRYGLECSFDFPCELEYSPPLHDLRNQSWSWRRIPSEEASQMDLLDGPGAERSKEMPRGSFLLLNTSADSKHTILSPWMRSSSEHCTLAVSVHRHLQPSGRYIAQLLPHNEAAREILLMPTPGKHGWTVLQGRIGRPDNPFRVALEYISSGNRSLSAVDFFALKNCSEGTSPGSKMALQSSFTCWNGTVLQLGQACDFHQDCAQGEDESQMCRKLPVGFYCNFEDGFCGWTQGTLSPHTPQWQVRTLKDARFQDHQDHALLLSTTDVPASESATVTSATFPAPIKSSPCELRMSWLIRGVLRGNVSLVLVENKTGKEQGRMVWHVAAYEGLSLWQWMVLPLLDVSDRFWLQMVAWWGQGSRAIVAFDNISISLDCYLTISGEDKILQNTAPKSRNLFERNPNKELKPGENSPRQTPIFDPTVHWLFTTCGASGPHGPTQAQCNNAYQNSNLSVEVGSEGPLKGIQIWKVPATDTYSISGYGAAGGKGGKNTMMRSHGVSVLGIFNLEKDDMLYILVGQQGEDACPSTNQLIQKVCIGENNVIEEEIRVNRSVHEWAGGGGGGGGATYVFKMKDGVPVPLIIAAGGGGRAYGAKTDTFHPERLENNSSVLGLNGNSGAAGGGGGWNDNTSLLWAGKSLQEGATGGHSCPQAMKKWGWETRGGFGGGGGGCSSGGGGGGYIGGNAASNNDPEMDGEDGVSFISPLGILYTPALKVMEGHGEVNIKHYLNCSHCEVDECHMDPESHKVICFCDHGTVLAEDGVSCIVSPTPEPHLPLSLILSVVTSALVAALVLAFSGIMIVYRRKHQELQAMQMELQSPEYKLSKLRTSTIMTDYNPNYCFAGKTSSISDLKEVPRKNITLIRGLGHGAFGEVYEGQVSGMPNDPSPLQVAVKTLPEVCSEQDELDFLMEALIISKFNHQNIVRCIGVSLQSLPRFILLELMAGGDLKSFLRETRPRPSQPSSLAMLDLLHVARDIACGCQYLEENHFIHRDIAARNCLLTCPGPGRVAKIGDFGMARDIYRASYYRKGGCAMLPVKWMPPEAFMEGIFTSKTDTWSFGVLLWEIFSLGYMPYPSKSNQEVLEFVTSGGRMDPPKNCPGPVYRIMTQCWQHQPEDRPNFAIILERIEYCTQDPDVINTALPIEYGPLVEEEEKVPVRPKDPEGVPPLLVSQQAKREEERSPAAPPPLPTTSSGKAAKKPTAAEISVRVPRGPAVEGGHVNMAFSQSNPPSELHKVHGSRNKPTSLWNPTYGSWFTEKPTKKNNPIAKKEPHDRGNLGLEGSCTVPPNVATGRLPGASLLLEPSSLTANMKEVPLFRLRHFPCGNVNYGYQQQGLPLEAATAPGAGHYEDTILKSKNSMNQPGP

[8] = molecular target: T1, Dual specificity protein kinase TTK (Homo sapiens) (UniProt P33981); assay: Inhibition of Mps1 phosphorylation in mouse 4T1-Luc cells xenografted in BALB/C mouse at 30 to 60 mg/kg, po qd treated for 15 days by IHC analysis; assay type: organism-based; conditions: dose 30-60 mg/kg, time 15.0 day
T1 sequence (whole entry): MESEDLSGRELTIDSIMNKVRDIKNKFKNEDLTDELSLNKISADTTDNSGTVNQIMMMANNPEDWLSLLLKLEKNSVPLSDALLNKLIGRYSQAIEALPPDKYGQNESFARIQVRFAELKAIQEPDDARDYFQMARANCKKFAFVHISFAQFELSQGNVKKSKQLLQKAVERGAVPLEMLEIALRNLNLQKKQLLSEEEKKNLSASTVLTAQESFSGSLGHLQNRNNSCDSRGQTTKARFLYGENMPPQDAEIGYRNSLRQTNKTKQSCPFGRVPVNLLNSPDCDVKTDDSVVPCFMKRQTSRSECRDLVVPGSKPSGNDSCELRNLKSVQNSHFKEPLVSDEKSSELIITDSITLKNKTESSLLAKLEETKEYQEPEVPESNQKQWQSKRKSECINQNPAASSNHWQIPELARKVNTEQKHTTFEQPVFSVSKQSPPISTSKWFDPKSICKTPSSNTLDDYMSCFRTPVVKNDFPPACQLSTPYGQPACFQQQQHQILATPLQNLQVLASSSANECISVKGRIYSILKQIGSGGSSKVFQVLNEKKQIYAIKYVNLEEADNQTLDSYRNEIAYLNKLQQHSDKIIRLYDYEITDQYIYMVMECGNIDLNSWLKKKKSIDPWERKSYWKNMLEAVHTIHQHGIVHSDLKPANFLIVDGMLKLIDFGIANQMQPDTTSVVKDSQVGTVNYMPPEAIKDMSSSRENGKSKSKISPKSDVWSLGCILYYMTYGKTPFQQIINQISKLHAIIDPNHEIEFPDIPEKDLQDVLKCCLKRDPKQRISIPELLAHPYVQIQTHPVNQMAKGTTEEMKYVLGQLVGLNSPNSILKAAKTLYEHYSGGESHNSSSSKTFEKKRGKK

[9] = Antitumor activity against mouse 4T1-Luc cells xenografted in BALB/C mouse assessed as reduction in mean tumor weight at 30 mg/kg, po qd treated for 15 days (reference value: 3.56 g); assay type: functional; conditions: time 15 day
MCF7 [10] = assay: Induction of apoptosis in human MCF7 cells assessed as necrotic cells at 5 uM incubated for 48 hrs by Annexin V-FITC/PI staining based flow cytometry (reference value: 0.03 %); assay type: functional
[11] = molecular target: Receptor-type tyrosine-protein kinase FLT3 (Homo sapiens) (UniProt P36888); assay: Inhibition of human FLT3 at 0.1 uM by KINOMEscan assay relative to control
Chain of Receptor-type tyrosine-protein kinase FLT3 (Homo sapiens) (P36888 whole entry): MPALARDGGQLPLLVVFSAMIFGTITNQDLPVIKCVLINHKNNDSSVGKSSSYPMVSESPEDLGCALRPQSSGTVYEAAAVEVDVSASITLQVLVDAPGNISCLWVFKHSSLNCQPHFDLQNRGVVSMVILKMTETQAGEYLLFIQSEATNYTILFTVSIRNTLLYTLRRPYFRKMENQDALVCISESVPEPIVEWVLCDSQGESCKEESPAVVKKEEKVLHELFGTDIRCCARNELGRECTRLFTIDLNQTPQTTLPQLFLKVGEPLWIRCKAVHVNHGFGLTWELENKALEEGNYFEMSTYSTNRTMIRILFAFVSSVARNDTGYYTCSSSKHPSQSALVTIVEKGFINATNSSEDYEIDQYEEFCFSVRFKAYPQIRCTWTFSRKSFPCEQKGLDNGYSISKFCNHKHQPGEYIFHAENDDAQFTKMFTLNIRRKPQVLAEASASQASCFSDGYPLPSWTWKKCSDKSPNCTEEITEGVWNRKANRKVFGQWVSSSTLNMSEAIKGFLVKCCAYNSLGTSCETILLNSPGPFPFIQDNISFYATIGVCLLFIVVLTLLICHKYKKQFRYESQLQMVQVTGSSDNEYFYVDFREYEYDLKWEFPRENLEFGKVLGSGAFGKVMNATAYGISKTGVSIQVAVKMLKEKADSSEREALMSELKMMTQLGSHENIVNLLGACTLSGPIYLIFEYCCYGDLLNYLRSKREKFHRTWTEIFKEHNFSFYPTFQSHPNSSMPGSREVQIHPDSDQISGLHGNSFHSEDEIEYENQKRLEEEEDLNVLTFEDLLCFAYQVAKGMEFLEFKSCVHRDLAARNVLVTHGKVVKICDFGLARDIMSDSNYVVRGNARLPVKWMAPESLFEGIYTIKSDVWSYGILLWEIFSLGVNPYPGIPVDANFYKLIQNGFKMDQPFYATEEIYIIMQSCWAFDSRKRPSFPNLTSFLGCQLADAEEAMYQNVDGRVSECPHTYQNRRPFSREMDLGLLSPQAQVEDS

AGS [12] = assay: Antiproliferative activity against human AGS cells assessed as inhibition of cell viability by MTT assay; assay type: functional, cell-based
MCF7 [13] = assay: Induction of apoptosis in human MCF7 cells assessed as early apoptotic cells at 0.5 uM incubated for 48 hrs by Annexin V-FITC/PI staining based flow cytometry (reference value: 1.19 %); assay type: functional
[14] = Toxicity in BALB/C mouse xenografted with mouse 4T1-Luc cells assessed as change in blood biochemical parameters at 30 to 60 mg/kg, po qd treated for 15 days; assay type: organism-based; conditions: in vivo, 360 h, dose 30-60 mg/kg, time 15 day
4T1 [15] = assay: Induction of apoptosis in 4T1 cells assessed as early apoptotic cells at 5 uM incubated for 48 hrs by Annexin V-FITC/PI staining based flow cytometry (reference value: 0.32 %); assay type: functional, Mus musculus
4T1 [16] = assay: Induction of apoptosis in 4T1 cells assessed as late apoptotic cells at 0.5 uM incubated for 48 hrs by Annexin V-FITC/PI staining based flow cytometry (reference value: 1.73 %); assay type: functional, Mus musculus
4T1 [17] = assay: Induction of cell cycle arrest in 4T1 cells at G2/M phase assessed as decrease in CDK1 level incubated for 24 hrs by Western blot analysis; assay type: functional, cell-based; conditions: Mus musculus, dose <= 3.0 µM
[18] = molecular target: ALK tyrosine kinase receptor (Homo sapiens) (UniProt Q9UM73); assay: Inhibition of human ALK at 1 uM by KINOMEscan assay relative to control
[19] = tested on: Tyrosine-protein kinase ABL1 (Homo sapiens), P00519 [T315I]; assay: Inhibition of human Abl T315I mutant at 1 uM by KINOMEscan assay relative to control
4T1 [20] = assay: Induction of apoptosis in 4T1 cells assessed as necrotic cells at 5 uM incubated for 48 hrs by Annexin V-FITC/PI staining based flow cytometry (reference value: 0.20 %); assay type: functional, Mus musculus
4T1 [21] = assay: Induction of DNA damage in 4T1 cells assessed as increase in gamma-H2AX level incubated for 2 hrs by Western blot analysis; assay type: functional, cell-based; conditions: Mus musculus, dose <= 3.0 µM
[22] = tested on: Tyrosine-protein kinase ABL1 (Homo sapiens), P00519 [T315I]; assay: Inhibition of human Abl T315I mutant at 0.1 uM by KINOMEscan assay relative to control
[23] = molecular target: Hepatocyte growth factor receptor (Homo sapiens) (UniProt P08581); assay: Inhibition of human Met at 0.1 uM by KINOMEscan assay relative to control
Chain of Hepatocyte growth factor receptor (Homo sapiens) (P08581 whole entry): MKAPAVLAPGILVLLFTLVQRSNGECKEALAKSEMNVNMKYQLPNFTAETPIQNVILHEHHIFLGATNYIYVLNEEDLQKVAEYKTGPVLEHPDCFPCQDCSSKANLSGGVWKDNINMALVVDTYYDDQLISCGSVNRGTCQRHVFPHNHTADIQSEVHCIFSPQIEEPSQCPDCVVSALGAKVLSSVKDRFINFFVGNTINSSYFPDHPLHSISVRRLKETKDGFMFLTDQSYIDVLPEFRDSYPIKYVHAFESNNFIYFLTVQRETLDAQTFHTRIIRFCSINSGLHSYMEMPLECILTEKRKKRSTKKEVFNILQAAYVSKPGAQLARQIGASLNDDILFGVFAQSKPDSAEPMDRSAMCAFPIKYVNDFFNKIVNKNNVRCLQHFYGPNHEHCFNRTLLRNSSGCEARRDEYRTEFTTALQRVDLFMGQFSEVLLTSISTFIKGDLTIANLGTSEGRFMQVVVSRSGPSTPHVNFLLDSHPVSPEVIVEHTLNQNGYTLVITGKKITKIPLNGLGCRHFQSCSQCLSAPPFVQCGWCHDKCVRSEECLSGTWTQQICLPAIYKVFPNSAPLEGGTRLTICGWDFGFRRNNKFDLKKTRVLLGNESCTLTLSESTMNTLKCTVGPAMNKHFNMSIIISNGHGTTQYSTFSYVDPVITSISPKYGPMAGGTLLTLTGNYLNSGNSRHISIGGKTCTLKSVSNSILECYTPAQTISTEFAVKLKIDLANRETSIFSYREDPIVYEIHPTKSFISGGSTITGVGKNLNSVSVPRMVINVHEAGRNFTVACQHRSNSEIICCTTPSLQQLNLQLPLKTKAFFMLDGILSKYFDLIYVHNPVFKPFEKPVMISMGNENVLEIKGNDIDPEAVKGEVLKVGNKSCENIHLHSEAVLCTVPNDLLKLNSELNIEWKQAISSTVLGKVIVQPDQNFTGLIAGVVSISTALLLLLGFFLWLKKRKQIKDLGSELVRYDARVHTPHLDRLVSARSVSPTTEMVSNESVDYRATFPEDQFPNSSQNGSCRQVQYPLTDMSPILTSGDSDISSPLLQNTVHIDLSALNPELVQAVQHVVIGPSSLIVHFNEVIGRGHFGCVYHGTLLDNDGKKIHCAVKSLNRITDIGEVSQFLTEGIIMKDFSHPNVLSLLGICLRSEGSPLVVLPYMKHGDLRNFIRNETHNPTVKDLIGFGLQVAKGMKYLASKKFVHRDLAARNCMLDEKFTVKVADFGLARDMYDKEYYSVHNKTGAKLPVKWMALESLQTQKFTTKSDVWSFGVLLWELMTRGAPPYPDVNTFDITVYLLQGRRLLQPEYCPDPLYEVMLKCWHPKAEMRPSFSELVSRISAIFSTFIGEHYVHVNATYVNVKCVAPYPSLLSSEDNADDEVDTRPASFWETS

AGS [24] = assay: Antiproliferative activity against human AGS cells assessed as inhibition of cell viability upto 10 uM incubated for 72 hrs by MTT assay; assay type: functional, cell-based
MCF7 [25] = assay: Induction of apoptosis in human MCF7 cells assessed as increase in cleaved PARP level upto 3 uM incubated for 48 hrs by Western blot analysis; assay type: functional, cell-based

SMILES: CN1CCN(c2ccc(Nc3nc(-n4nc(N)c5ccccc54)c4cc[nH]c4n3)cc2)CC1
- Activity (4T1 [1]): Dose-Dependent Effect
- inhibition (ES-2): Active
- inhibition (HCT-116): Active
- inhibition [2]: 96%
- Activity (Vero): Non-Toxic
- IC50 (MCF7 [3]): 370 nM
- Activity (4T1 [4]): 1.17%
- inhibition (4T1 [5]): Tde
- Activity (MCF7 [6]): 6.54%
- inhibition [7]: 86%
- inhibition [8]: Active
- Activity [9]: 1.4 g
- Activity (MCF7 [10]): 0.38%
- inhibition [11]: 86%
- IC50 (AGS [12]): > 3000 nM
- Activity (MCF7 [13]): 6.55%
- Activity [14]: Non-Toxic
- Activity (4T1 [15]): 2.71%
- Activity (4T1 [16]): 5.41%
- Activity (4T1 [17]): Dose-Dependent Effect
- inhibition [18]: 91%
- inhibition [19]: 100%
- Activity (4T1 [20]): 0.32%
- Activity (4T1 [21]): Dose-Dependent Effect
- inhibition [22]: 40%
- inhibition [23]: 53%
- inhibition (AGS [24]): Active
- Activity (MCF7 [25]): Active
